Assay results published in paper PMC8333425, “Discovery of a dual Ras and ARF6 inhibitor from a GPCR endocytosis screen” (Nature Communications, 2021).

Experiments:
Assay in all cases: KINOMEscan kinase binding assay
[1] = target: T1, 384 kinases from the human genome (Homo sapiens, UniProt O94806); conditions: kinase PRKD3 (Entrez PRKD3)
T1 construct: purchased Eurofin/DiscoverX
In short: (§1)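 Competition binding (KINOMEscan) across 384 human kinases with compound at 10 µM. Ligand binding was expressed relative to DMSO (100%) as the average of duplicates from one experiment. S(10) selectivity score was derived.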

[2] = target: T2, 384 kinases from the human genome (Homo sapiens, UniProt Q86Y07); conditions: kinase VRK2 (Entrez VRK2)
T2 construct: purchased Eurofin/DiscoverX
In short: as §1

[3] = target: T3, 384 kinases from the human genome (Homo sapiens, UniProt O96017); conditions: kinase CHEK2 (Entrez CHEK2)
T3 construct: purchased Eurofin/DiscoverX
In short: as §1

[4] = target: T4, 384 kinases from the human genome (Homo sapiens, UniProt P15056)
T4 construct: purchased Eurofin/DiscoverX
In short: as §1

[5] = target: T5, 384 kinases from the human genome (Homo sapiens, UniProt O75385); conditions: kinase ULK1 (Entrez ULK1)
T5 construct: purchased Eurofin/DiscoverX
In short: as §1

[6] = target: T6, 384 kinases from the human genome (Homo sapiens, UniProt Q13976); conditions: kinase PRKG1 (Entrez PRKG1)
T6 construct: purchased Eurofin/DiscoverX
In short: as §1

[7] = target: T7, 384 kinases from the human genome (Homo sapiens, UniProt Q07912); conditions: kinase TNK2 (Entrez TNK2)
T7 construct: purchased Eurofin/DiscoverX
In short: as §1

[8] = target: T8, 384 kinases from the human genome (Homo sapiens, UniProt Q13555); conditions: kinase CAMK2G (Entrez CAMK2G)
T8 construct: purchased Eurofin/DiscoverX
In short: as §1

[9] = target: T9, 384 kinases from the human genome (Homo sapiens, UniProt O75116); conditions: kinase ROCK2 (Entrez ROCK2)
T9 construct: purchased Eurofin/DiscoverX
In short: as §1

[10] = target: T10, 384 kinases from the human genome (Homo sapiens, UniProt Q8NI60); conditions: kinase ADCK3 (Entrez CABC1)
T10 construct: purchased Eurofin/DiscoverX
In short: as §1

[11] = target: T11, 384 kinases from the human genome (Homo sapiens, UniProt Q06187); conditions: kinase BTK (Entrez BTK)
T11 construct: purchased Eurofin/DiscoverX
In short: as §1

[12] = target: T12, 384 kinases from the human genome (Homo sapiens, UniProt Q9HBH9); conditions: kinase MKNK2 (Entrez MKNK2)
T12 construct: purchased Eurofin/DiscoverX
In short: as §1

[13] = target: T13, 384 kinases from the human genome (Homo sapiens, UniProt P10721)
T13 construct: purchased Eurofin/DiscoverX
In short: as §1

[14] = target: T14, 384 kinases from the human genome (Homo sapiens, UniProt O95835); conditions: kinase LATS1 (Entrez LATS1)
T14 construct: purchased Eurofin/DiscoverX
In short: as §1

[15] = target: T15, 384 kinases from the human genome (Homo sapiens, UniProt O75460); conditions: kinase ERN1 (Entrez ERN1)
T15 construct: purchased Eurofin/DiscoverX
In short: as §1

[16] = target: T16, 384 kinases from the human genome (Homo sapiens, UniProt O43353); conditions: kinase RIPK2 (Entrez RIPK2)
T16 construct: purchased Eurofin/DiscoverX
In short: as §1

[17] = target: T17, 384 kinases from the human genome (Homo sapiens, UniProt Q99759); conditions: kinase MAP3K3 (Entrez MAP3K3)
T17 construct: purchased Eurofin/DiscoverX
In short: as §1

[18] = target: T18, 384 kinases from the human genome (Homo sapiens, UniProt Q8IVW4); conditions: kinase CDKL3 (Entrez CDKL3)
T18 construct: purchased Eurofin/DiscoverX
In short: as §1

[19] = target: T19, 384 kinases from the human genome (Homo sapiens, UniProt P53350); conditions: kinase PLK1 (Entrez PLK1)
T19 construct: purchased Eurofin/DiscoverX
In short: as §1

[20] = target: T20, 384 kinases from the human genome (Homo sapiens, UniProt P14616); conditions: kinase INSRR (Entrez INSRR)
T20 construct: purchased Eurofin/DiscoverX
In short: as §1

[21] = target: T21, 384 kinases from the human genome (Homo sapiens, UniProt Q9H422); conditions: kinase HIPK3 (Entrez HIPK3)
T21 construct: purchased Eurofin/DiscoverX
In short: as §1

[22] = target: T22, 384 kinases from the human genome (Homo sapiens, UniProt Q13882); conditions: kinase BRK (Entrez PTK6)
T22 construct: purchased Eurofin/DiscoverX
In short: as §1

[23] = target: T23, 384 kinases from the human genome (Homo sapiens, UniProt Q9NY57); conditions: kinase YANK2 (Entrez STK32B)
T23 construct: purchased Eurofin/DiscoverX
In short: as §1

[24] = target: T24, 384 kinases from the human genome (Homo sapiens, UniProt Q15831); conditions: kinase LKB1 (Entrez STK11)
T24 construct: purchased Eurofin/DiscoverX
In short: as §1

[25] = target: T25, 384 kinases from the human genome (Homo sapiens, UniProt Q8NFD2); conditions: kinase ANKK1 (Entrez ANKK1)
T25 construct: purchased Eurofin/DiscoverX
In short: as §1

[26] = target: T26, 384 kinases from the human genome (Homo sapiens, UniProt Q15375); conditions: kinase EPHA7 (Entrez EPHA7)
T26 construct: purchased Eurofin/DiscoverX
In short: as §1

T13 sequence (P10721 26-976): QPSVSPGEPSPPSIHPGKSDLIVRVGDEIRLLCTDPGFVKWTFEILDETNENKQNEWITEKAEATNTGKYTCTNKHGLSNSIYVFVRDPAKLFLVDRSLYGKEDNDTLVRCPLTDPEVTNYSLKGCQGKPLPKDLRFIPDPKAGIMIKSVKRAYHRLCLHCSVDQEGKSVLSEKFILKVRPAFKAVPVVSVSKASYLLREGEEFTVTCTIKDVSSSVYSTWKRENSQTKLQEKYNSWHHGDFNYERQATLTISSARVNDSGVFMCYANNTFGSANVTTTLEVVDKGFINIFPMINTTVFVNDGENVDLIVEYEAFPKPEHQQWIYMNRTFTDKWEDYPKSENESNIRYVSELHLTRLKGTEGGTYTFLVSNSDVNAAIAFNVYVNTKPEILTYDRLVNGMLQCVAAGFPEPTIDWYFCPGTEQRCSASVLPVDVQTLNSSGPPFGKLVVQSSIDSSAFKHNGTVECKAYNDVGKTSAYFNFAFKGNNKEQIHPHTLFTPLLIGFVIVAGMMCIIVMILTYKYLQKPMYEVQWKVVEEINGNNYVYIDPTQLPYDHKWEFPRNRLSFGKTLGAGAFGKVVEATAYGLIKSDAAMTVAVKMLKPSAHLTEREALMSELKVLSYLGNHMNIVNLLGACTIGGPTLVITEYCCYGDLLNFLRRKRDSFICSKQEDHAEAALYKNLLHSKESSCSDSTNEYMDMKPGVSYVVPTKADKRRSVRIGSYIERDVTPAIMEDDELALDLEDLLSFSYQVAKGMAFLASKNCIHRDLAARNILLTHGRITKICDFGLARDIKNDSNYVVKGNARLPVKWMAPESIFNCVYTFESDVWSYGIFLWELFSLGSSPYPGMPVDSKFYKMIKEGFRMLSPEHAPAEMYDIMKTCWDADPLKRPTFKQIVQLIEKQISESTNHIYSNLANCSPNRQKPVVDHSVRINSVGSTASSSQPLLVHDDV
T4 sequence (P15056 whole entry): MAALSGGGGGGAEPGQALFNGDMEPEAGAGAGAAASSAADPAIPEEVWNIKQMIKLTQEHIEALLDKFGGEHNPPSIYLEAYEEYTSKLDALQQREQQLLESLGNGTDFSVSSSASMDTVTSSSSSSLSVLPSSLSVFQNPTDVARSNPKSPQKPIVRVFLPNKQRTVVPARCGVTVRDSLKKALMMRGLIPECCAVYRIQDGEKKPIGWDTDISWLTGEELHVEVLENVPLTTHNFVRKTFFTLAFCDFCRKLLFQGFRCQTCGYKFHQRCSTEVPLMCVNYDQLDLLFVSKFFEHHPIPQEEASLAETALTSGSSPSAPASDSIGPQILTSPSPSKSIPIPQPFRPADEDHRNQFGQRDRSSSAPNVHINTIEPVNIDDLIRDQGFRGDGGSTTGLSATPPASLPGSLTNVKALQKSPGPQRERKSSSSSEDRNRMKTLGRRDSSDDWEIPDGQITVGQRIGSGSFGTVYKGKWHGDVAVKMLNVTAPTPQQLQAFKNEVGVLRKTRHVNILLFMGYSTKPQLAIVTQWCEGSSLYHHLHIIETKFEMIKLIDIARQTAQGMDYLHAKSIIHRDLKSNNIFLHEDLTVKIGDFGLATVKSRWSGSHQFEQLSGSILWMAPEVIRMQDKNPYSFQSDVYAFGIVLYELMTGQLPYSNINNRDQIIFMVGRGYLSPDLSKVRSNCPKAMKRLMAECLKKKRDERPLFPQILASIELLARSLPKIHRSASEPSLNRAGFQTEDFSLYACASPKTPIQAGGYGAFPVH
T5 sequence (O75385 whole entry): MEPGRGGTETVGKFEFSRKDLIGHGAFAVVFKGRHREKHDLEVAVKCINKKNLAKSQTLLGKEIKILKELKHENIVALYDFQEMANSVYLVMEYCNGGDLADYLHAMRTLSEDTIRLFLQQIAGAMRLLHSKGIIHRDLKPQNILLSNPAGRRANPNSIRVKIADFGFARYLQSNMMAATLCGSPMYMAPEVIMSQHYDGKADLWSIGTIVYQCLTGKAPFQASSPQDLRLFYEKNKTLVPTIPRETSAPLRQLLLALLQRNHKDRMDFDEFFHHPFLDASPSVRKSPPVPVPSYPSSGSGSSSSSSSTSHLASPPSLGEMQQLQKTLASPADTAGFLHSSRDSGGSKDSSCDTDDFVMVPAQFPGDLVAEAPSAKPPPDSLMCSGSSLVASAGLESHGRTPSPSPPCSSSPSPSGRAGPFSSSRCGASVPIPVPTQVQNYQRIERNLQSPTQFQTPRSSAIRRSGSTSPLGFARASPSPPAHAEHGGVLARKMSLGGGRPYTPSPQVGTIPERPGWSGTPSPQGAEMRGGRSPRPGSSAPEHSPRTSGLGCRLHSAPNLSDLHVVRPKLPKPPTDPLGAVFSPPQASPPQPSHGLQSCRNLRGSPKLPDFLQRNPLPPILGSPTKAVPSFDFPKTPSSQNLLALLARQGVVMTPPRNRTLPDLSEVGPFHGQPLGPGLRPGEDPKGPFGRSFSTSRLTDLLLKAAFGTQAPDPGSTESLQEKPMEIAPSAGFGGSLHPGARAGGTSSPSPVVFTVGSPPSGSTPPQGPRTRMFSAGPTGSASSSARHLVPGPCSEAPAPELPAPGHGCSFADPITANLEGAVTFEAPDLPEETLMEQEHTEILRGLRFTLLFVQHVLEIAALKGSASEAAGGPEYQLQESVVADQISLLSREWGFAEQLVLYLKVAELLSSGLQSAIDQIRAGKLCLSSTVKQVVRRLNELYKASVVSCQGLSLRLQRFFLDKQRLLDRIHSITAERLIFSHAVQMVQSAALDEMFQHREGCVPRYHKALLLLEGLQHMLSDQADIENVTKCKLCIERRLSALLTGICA
T21 sequence (Q9H422 whole entry): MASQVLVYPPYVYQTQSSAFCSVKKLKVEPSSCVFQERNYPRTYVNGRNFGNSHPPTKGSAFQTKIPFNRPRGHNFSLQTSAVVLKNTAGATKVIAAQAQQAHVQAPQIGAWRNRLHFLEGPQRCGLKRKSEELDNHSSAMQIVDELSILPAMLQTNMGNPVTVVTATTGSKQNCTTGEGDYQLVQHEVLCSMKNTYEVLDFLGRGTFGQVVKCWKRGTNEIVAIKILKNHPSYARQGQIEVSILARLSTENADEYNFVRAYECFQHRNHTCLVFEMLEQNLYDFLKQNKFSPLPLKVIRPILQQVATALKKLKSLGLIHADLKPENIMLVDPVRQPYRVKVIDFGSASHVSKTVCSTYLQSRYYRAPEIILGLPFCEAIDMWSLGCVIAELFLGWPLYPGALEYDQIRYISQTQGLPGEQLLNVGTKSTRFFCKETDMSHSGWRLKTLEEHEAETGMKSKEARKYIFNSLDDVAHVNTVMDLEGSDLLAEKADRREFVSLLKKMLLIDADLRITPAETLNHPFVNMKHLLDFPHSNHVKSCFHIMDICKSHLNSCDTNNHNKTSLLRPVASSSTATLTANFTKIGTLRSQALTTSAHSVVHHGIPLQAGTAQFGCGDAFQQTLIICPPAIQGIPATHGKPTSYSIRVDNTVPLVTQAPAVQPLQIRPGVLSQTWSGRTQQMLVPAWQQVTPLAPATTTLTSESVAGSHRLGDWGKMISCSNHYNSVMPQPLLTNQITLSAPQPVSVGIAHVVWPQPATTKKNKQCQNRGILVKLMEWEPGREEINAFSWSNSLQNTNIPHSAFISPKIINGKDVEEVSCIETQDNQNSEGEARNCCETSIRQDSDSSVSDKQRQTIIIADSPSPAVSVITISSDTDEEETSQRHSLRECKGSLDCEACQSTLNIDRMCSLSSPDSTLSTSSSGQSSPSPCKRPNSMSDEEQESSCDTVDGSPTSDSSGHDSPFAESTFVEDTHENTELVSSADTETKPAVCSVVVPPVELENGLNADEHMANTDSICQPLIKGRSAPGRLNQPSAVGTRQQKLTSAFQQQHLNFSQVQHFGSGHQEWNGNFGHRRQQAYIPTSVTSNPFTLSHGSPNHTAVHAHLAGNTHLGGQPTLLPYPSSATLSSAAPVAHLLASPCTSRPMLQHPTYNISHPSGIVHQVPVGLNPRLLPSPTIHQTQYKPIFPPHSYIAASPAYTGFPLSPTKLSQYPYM
T22 sequence (Q13882 whole entry): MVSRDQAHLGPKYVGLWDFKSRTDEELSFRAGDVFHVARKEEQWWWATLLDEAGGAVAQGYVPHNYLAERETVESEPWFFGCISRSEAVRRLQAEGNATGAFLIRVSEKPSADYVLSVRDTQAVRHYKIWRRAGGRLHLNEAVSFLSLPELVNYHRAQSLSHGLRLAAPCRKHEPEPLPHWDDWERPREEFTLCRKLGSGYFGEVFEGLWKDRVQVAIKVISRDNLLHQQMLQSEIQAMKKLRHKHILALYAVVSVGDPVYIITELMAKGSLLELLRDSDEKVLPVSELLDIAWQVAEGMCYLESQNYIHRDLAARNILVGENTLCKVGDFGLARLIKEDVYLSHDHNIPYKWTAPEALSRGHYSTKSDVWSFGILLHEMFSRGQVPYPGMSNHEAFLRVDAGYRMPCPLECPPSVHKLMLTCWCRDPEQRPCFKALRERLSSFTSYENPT
T6 sequence (Q13976 whole entry): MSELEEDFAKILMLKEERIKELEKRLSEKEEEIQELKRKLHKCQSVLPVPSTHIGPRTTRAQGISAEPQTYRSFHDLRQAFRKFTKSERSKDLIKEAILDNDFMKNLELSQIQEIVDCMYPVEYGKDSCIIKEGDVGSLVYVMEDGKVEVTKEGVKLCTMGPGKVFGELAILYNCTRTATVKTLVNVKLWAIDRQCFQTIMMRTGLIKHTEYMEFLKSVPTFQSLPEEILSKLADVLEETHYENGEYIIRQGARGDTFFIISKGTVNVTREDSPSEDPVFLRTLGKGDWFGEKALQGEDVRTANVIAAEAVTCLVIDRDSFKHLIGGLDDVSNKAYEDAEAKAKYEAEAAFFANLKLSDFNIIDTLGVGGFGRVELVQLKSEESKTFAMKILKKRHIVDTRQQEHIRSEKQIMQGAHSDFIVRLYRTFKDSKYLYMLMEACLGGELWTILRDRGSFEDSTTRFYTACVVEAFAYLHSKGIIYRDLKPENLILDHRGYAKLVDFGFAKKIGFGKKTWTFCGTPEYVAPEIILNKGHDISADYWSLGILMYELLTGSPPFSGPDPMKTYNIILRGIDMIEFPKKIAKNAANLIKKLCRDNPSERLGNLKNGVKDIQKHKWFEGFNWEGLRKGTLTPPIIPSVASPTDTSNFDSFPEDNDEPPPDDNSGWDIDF

CC(C)C(=O)N1CCN(c2ccc(NC(=O)c3cc4ccccc4o3)cc2Cl)CC1 [Compound 21]
Percent Control [1]: 98% | Percent Control [2]: 88% | Percent Control [3]: 100% | binding to BRAF ([4]; 10 µM of 21): failed to bind | Percent Control ([4]; kinase BRAF (Entrez BRAF)): 93% | Percent Control [5]: 97% | Percent Control [6]: 96% | Percent Control [7]: 68% | Percent Control [8]: 98% | Percent Control [9]: 80% | Percent Control [10]: 64% | Percent Control [11]: 94% | Percent Control [12]: 97% | KIT binding to its ligand affected ([13]; 10 µM of 21, compared to DMSO (100%)): more than 90% | Percent Control ([13]; kinase KIT (Entrez KIT)): 5.9% | Percent Control ([13]; kinase KIT-autoinhibited (Entrez KIT)): 93% | Percent Control [14]: 98% | Percent Control [15]: 55% | Percent Control [16]: 81% | Percent Control [17]: 75% | Percent Control [18]: 100% | Percent Control [19]: 77% | Percent Control [20]: 97% | Percent Control [21]: 93% | Percent Control [22]: 88% | Percent Control [23]: 98% | Percent Control [24]: 67% | Percent Control [25]: 100% | Percent Control [26]: 90%
